One series has as its system heart rate. Briefly: intrinsic stimulating activity on heart rate in reserpinized cats. The series is classed as in vivo, cat. The following applies: Felis catus, read-out: Intrinsic activity % of maximal isoprenaline heart rate. As for the experimental part: (§1) Compounds prepared according to the examples were evaluated for intrinsic activity and blocking effect on heart rate and: peripheral vasodilator response to isoprenaline in the cat. The acute LD50 in mice was evaluated.
(§2) Cats weighing between 1.8 and 2.8 kg were anaesthetized with 30 mg/kg pentobarbital sodium, intraperitoneally. The cats had been pretreated with reserpine, 5 mg/kg intramuscular, about 18 hours before the experiment. Bilateral vagotomy was performed before the start of the experiment.
The heart rate was recorded on an Offner cardiotachometer triggered by the EKG-complex. Mean arterial blood pressure was recorded from a carotid artery. The peripheral resistance was measured in one of the legs of the cat in the following way: The femoral artery was opened in the inguinal region and the leg was perfused by blood delivered through a sigma motor pump at constant rate. The flow resistance (the pressure) was recorded via a pressure transudcer connected to the catheter distally to the pump. […] An isoprenaline dose giving 70-80% of the maximal chronotropic response was determined. […] Ten minutes before each isoprenaline injection, the tested substances were administered intravenously for two minutes, starting with a dose of 0.01 mg/kg and increasing each subsequent dose fourfold. The intrinsic effects of the test substances were determined. The dose producing 50% blockade of the isoprenaline responses was evaluated from the plotted log dose-percent blockade diagrams.

For series [1], the target named is T1, peripheral vascular β-receptors (Felis catus, UniProt Q9TST5).
T1 construct: from tissue; host or cells: vascular bed of the perfused leg of the anaesthetized, reserpinized cat, paw excluded (in vivo)
T1 sequence (Q9TST5 whole entry, the tested form may be a part): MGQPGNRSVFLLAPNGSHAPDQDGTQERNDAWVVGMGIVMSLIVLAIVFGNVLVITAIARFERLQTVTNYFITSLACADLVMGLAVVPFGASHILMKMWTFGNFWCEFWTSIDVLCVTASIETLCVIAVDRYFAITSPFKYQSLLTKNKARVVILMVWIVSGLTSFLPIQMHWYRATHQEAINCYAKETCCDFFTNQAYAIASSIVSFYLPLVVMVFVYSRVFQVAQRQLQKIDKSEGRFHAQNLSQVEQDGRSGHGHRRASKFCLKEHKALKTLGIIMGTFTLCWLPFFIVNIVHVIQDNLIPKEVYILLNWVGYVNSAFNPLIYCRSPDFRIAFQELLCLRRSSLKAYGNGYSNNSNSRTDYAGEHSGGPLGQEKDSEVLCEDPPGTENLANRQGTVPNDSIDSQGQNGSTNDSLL
Briefly: β-blocking activity on peripheral vascular resistance (vasodilator response to isoprenaline) in reserpinized cats. The series is classed as in vivo, cat. The conditions noted are these: read-out: β-blockade peripheral vascular resistance ED50. As for the experimental part:
(§3) The acute LD50 in mice was evaluated. Alprenolol was used as a reference substance.
as §2
(§4) The heart rate was recorded on an Offner cardiotachometer triggered by the EKG-complex. Mean arterial blood pressure was recorded from a carotid artery. The peripheral resistance was measured in one of the legs of the cat in the following way: The femoral artery was opened in the inguinal region and the leg was perfused by blood delivered through a sigma motor pump at constant rate. The flow resistance (the pressure) was recorded via a pressure transudcer connected to the catheter distally to the pump. The paw was excluded from the circulation by a tight ligature Intravenously injected isoprenaline increased the heart rate and reduced the perfusion pressure. An isoprenaline dose giving 70-80% of the maximal chronotropic response was determined. This dose (usually 0.1 μg/kg) was then repeated with 20 minute intervals. Ten minutes before each isoprenaline injection, the tested substances were administered intravenously for two minutes, starting with a dose of 0.01 mg/kg and increasing each subsequent dose fourfold. The intrinsic effects of the test substances were determined. The dose producing 50% blockade of the isoprenaline responses was evaluated from the plotted log dose-percent blockade diagrams.

Another series is described as follows: in vivo. The conditions noted are these: mouse, ip. As for the experimental part:
as §1

Another series concerns the target T2, β-receptors of the heart (Felis catus, UniProt Q9TST6).
T2 construct: Intravenously injected isoprenaline increased the heart rate and reduced the perfusion pressure; from tissue; host or cells: heart of the intact anaesthetized, reserpinized, vagotomized cat (in vivo)
As to the kind of experiment: β-blocking activity on heart rate (isoprenaline response) in reserpinized cats. The series is classed as in vivo, cat. The conditions noted are these: read-out: β-blockade Heart rate ED50. As for the experimental part: as §3, §2, §4

Where [2] appears, read: reserpinized cat, pentobarbital anaesthesia, intravenous.
Where [3] appears, read: reserpinized cat, intravenous, dose producing 50% blockade of isoprenaline response.

Where two headings read alike, the source gives them in different places.

T2 sequence (Q9TST6 whole entry, the tested form may be a part): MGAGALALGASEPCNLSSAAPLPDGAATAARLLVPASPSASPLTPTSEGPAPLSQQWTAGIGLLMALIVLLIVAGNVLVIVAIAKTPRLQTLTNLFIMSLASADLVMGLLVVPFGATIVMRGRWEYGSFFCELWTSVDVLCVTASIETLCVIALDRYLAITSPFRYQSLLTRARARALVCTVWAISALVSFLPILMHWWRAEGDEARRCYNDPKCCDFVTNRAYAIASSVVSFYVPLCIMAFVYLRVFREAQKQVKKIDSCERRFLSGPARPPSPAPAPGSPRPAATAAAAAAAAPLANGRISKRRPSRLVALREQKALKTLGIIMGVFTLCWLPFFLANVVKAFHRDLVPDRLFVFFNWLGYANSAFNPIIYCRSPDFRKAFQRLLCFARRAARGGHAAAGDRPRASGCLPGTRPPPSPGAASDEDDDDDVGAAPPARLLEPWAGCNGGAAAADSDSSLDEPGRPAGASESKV

Take `CCOCc1ccc(OCC(O)CNC(C)C)cc1` (centres unmarked) [Ex. III, 1-isopropylamino-3-(p-ethoxymethyl-phenoxy)-propanol-2]: the Emax in the series with heart rate (setting [2]) came to 0%. The ED50 in series [1] (setting [3]) is 6 mg/kg; at β-receptors of the heart (setting [3]), 0.4 mg/kg. Also, the LD50 in the series “in vivo” worked out at 175 mg/kg.
For the compound `CCOC(=O)NCCc1ccc(OCC(O)CNC(C)C)cc1` (centres unmarked), the Emax in the series with heart rate (iv) is 0%. Further, the ED50 in series [1] (setting [3]) worked out at 25 mg/kg; on β-receptors of the heart (setting [3]) it was 0.3 mg/kg. This compound also showed a median lethal dose (LD50) in the series “in vivo” of 200 mg/kg.
For `CCOCCc1ccc(OCC(O)CNC(C)C)cc1` (stereo not drawn) [Ex. II, 1-isopropylamino-3-[p-(β-ethoxyethyl)-phenoxy]-propanol-2], the Emax with heart rate (setting [2]) was 0%. Further, the 50% effective dose (ED50) came out at 4 mg/kg in series [1] (setting [3]) and 0.3 mg/kg on β-receptors of the heart (setting [3]). The LD50 in the series “in vivo” amounted to 150 mg/kg.
With `C=CCc1ccccc1OCC(O)CNC(C)C` (centres unmarked) [alprenolol, reference compound], in the series on heart rate (setting [2]), the Emax stood at 20%. Besides, the median effective dose (ED50) amounted to 0.05 mg/kg in series [1] (cat, iv) and 0.1 mg/kg on β-receptors of the heart (cat, iv).
For the compound `COCCc1ccc(OCC(O)CNC(C)C)cc1` (stereo not drawn) [Ex. I, 1-isopropylamino-3-[p-(β-methoxyethyl)-phenoxy]-propanol-2], the Emax with heart rate (setting [2]) was found to be 0%. In addition, the ED50 in series [1] (cat, iv) was 3 mg/kg; at β-receptors of the heart (cat, iv), 0.4 mg/kg. For the same compound, the median lethal dose (LD50) in “in vivo” amounted to 200 mg/kg.
For `COC(=O)NCCc1ccc(OCC(O)CNC(C)C)cc1` (centres unmarked) [(no label)], the Emax with heart rate (iv) came to 0%. Further, the median effective dose (ED50) in series [1] (setting [3]) came to 19 mg/kg; on β-receptors of the heart (setting [3]), 0.4 mg/kg. For the same compound, the 50% lethal dose (LD50) in the series “in vivo” amounted to 125 mg/kg.

Usually ED50 stands for the dose that gives a 50% effect, or the effect in half of the subjects. What is called LD50 is the dose expected to kill half of the subjects tested.

For the origin of these results see patent US3998790A, “Phenoxy-hydroxypropylamines, their preparation, and method and pharmaceutical preparations for treating cardiovascular diseases” (priority 1974, dated 1976).
